For one experiment, the system named is WM266-4 (melanoma). Description: Anti-proliferative activity (ATPLite). The experiment is classed as cell-based. Conditions: Homo sapiens, WM 266-4; two treatments instead of three; cell viability by ATPLite; read-out: Antiproliferative activity: IC50 (μM) WM266-4 (melanoma). The protocol:
(§1) To measure the anti-proliferative properties of tested molecules, 2×10^4 cells are seeded at day 0 in a 96 wells plate. The compounds to be tested, stored at −20° C. as 10^−2 M stock solution in 100% DMSO, are freshly diluted on day 1 in the cell medium, before adding a dose range of 3.2 nM to 10 μM to the cells. Cells are treated everyday and cell viability assessed after 3 days or 7 days of treatment. The cell viability is assessed using the ATPLite kit from Perkin (ATPlite 1 Step Luminescence Assay System, ref 3016739), following the provider instructions. The raw data are analyzed with GraphPad Prism software (v4.03) to generate IC50 values corresponding to the compound concentrations giving 50% reduction in cell viability. The values presented are the mean results of at least two independent experiments. The standard errors are indicated.
On the technique in general: In ATP-based viability assays light output follows the ATP content of the culture.

Experiment [1] concerns HCT116 (colorectal cancer). In words: Anti-proliferative activity (ATPLite). The class given is cell-based. Conditions: Homo sapiens, HCT-116; daily treatment, cell viability by ATPLite; read-out: Antiproliferative activity: IC50 (μM) HCT116 (colorectal cancer). The protocol:
as §1

In the next experiment the test system is KG-1 (leukemia). Description: Anti-proliferative activity (ATPLite). The experiment is classed as cell-based. Conditions: Homo sapiens; daily treatment, cell viability by ATPLite; read-out: Antiproliferative activity: IC50 (μM) KG-1 (leukemia). The protocol: as §1
For experiment [2], the system named is CMV promoter in KG-1-Luc cells. Description: CMV promoter analysis by NOMe-Seq (CpG methylation and chromatin accessibility). The class given is cell-based, human. Conditions: at 5 μM, 24 h; for DNA demethylation, KG1 CMV-Luc model: methylated cytosine treated vs non treated; for Chromatin accessibility, KG1 CMV-Luc model: ratio of GpC methylation. On the procedure:
Using the Nucleosome Occupancy and Methylome Sequencing (NOMe-Seq) technique, the methylation status of the CMV promoter and the position of the nucleosomes on such promoter were both analysed.
NOMe-seq is a modified version of the methylation-dependent single promoter assay described by Miranda et al. (Curr Protoc Mol Biol. 2010 21.17.1-16) and the methylase-based DNA assay was performed as previously described with minor modifications. After nuclei extraction, GpC DNA methyltransferase M.CviPI (New England Biolabs) reactions were done in M.CviPI reaction buffer. GpC methyltransferase treatment was followed by DNA extraction, sodium bisulfite conversion, PCR amplification of the region of interest, cloning, and sequencing of individual clones to reveal the structure of single replicas as functional units. After treatment with the compounds or with DMSO, KG-1-Luc cells were centrifuged for 5 min at 500×g. Cell pellets were washed in ice-cold PBS, resuspended in 1 mL of ice-cold nuclei buffer [10 mM Tris (pH 7.4), 10 mM NaCl, 3 mM MgCl2, 0.1 mM EDTA, and 0.5% Nonidet P-40, plus protease inhibitors] per 2×10^6 cells, and incubated on ice for 10 min. Nuclei were recovered by centrifugation at 900×g for 5 min, washed twice in nuclei wash buffer [10 mM Tris (pH 7.4), 10 mM NaCl, […], and 0.1 mM EDTA containing protease inhibitors], and resuspended with 200 μL in 1×M.CviPI reaction buffer supplemented with 0.3 M sucrose, 160 μM SAM (New England Biolabs). 100 μL of purified genomic DNA were treated with 100 U of M.CviPI for 15 min at 37° C. in 200 μL final volume. The other part of 100 μL of purified genomic DNA were not treated with 100 U of M.CviPI but just incubated for 15 min at 37° C. to obtain CpG methylation profile. Reactions were stopped by the addition of an equal volume of stop solution [20 mM Tris.HCl (pH 7.9), 600 mM NaCl, 1% SDS, 10 mM EDTA, and 400 μg/mL Proteinase K] and incubated at 55° C. overnight. DNA was purified by phenol/chloroform extraction and ethanol precipitation. Bisulfite conversion was performed with the EZ DNA Methylation-Gold Kit (Zymo Research). Bisulfited DNA was eluted with 12 μL of water and 8 μL were used for CMV amplification.
The CMV promoter DNA amplification was carried on 8.3 μL eluted bisulfited DNA in 20 μL PCR reaction containing 1×KAPA2G Buffer A, 2.0 mM MgCl2, 200 μM dNTPs, 125 nM each primer and 1.0 units KAPA2G™ Robust HotStart DNA Polymerase (KapaBiosystems) on C1000 Touch™ thermal cycler 95° C. 3 min following by 95° C. for 20 sec, 55° C. for 30 sec, 72° C. for 30 sec×40 cycles and final extension at 72° C. 1 min. PCR fragments were quality controlled by agarose gel electrophoresis.
Steps of cloning and sequencing were as those described previously except that M13 PCR was used to amplify the cloned sequence in 20 μL PCR reaction volume containing 1×KAPA2G Buffer B, 2.0 mM MgCl2, 200 μM dNTPs, 125 nM each primer and 1.0 U KAPA2G™ Robust HotStart DNA Polymerase (KapaBiosystems) on C1000 Touch™ thermal cycler 95° C. 3 min following by 95° C. for 20 sec, 55° C. for 30 sec, 72° C. for 30 sec×40 cycles and final extension at 72° C. 1 min.
Genomic alignment and bisulfite sequence analysis was performed largely as previously described (Berman et al. Nat Genet 2012, 44, 40-6).
BISMA (Bisulfite Sequencing DNA Methylation Analysis) software was used for CpG methylation analysis of primary bisulfite sequencing data from subcloned individual molecules (Rohde et al. BMC Bioinformatics 2010, 11, 230). Methyl Viewer (Pardo et al. Nucleic Acids Res 2011, 39, e5) was used to obtain GC methylation results and nucleosome occupancy. The ratio of methylation is representative of the chromatin accessibility by M.CviPI and nucleosome occupancy. The combined methylation status for each clone by CpG (BISMA) or GpC (Methyl Viewer) site has been assembled. […]

From US10544156B2, “Hemi-synthetic trilobine analogs for use as a drug” (PIERRE FABRE MEDICAMENT, priority 2015, dated 2020) come the findings set out here.

For orientation: IC50 means the point on the concentration scale where inhibition reaches its midpoint.

Regarding `COc1ccc2cc1Oc1ccc(cc1)C[C@@H]1NCCc3cc(OC)c4c(c31)Oc1cc3c(cc1O4)CCN(C)[C@H]3C2` [Trilobine (1), trilobine], the values for the IC50 (with WM266-4 (melanoma); in experiment [1]; in the experiment on KG-1 (leukemia)) were 3.2 ± 0.8 µM, 1.19 ± 0.02 µM and 2.1 ± 0.8 µM, respectively. In experiment [2], the “DNA demethylation, KG1 CMV-Luc model” value is −37 ± 8%. Besides, the “Chromatin accessibility, KG1 CMV-Luc model” value in experiment [2] came out at 1.9 ± 0.1.
In the same order, the values of `CCN(CC)CCCNC(=S)N1CCc2cc3c4cc2[C@@H]1Cc1ccc(OC)c(c1)Oc1ccc(cc1)C[C@H]1c2c(cc(OC)c(c2O4)O3)CCN1C(=S)NCCCN(CC)CC` [Product 41] are 4.4 ± 1.5 µM, 0.96 ± 0.02 µM, 5.3 ± 0.4 µM, 0% and 2.1 ± 0.1.
For `CNC(=O)N1CCc2cc(OC)c3c4c2[C@@H]1Cc1ccc(cc1)Oc1cc(ccc1OC)C[C@H]1c2cc(c(cc2CCN1C)O3)O4` [Product 44], the results for the IC50 (with WM266-4 (melanoma); in experiment [1]; in the experiment with KG-1 (leukemia)) were 12 ± 3 µM, 1.88 ± 0.03 µM and 4.2 ± 0.05 µM, respectively. For the same compound, in experiment [2], the “DNA demethylation, KG1 CMV-Luc model” value is −53 ± 6%. Further, the “Chromatin accessibility, KG1 CMV-Luc model” value in experiment [2] is given as 2.3 ± 0.2.
